Results: patent US20030134842A1, “METHODS FOR THE TREATMENT OR PREVENTION OF INFLAMMATORY DISEASES CHARACTERIZED BY ABNORMAL CELL PROLIFERATION” (priority 1997, published 2003)

Key:
[1] = test system: MM-RU human melanoma cells; conditions: SCID mice inoculated with MM-RU human melanoma cells, daily administration; cited from earlier work
red cell Gardos channel = target: T1, red cell Gardos channel (Mus musculus, UniProt O89109); conditions: SAD mouse, oral administration; cited from earlier work
T1 construct: host or cells: red cells of the SAD mouse, in vivo
T1 sequence (O89109 whole entry): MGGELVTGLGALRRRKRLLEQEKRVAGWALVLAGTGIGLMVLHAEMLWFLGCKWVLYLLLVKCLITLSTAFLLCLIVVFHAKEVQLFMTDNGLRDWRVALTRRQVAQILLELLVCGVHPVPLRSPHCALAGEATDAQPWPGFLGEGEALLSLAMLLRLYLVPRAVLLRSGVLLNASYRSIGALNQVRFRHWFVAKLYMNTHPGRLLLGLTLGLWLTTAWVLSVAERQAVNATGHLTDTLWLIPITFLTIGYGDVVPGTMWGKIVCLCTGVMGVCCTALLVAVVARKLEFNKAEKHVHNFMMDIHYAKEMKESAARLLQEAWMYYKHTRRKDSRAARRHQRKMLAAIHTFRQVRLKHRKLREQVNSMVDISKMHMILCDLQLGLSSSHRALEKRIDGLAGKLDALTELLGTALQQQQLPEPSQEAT

Gardos channel = target: T2, Gardos channel (Homo sapiens, UniProt O15554); conditions: patients with sickle cell disease, oral; cited from earlier work
T2 construct: reduces erythrocyte dehydration in patients with sickle cell disease; host or cells: erythrocytes of sickle cell patients, in vivo
T2 sequence (O15554 whole entry): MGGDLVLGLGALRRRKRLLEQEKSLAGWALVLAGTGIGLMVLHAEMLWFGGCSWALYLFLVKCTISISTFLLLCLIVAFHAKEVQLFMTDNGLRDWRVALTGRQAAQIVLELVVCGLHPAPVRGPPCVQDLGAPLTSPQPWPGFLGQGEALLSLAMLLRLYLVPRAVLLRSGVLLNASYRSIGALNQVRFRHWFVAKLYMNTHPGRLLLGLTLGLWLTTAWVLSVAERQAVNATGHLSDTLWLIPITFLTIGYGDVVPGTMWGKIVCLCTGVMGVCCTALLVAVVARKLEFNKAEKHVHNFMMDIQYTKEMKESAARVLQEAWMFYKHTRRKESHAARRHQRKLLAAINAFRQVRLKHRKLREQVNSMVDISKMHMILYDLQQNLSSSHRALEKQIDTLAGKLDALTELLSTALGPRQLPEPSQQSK

[2] = test system: NIH 3T3 mouse fibroblast cells; assay: Mitogenic assay (mitogen-induced cell proliferation); format: cell-based; conditions: 10 µM compound, NIH 3T3 mouse fibroblast cells

For `Clc1ccccc1C(c1ccccc1)(c1ccccc1)n1ccnc1` [Clotrimazole], the “number of lung metastases” value [1] is listed as “significant reduction in the number of lung metastases observed”, the “red cell Gardos channel, K+ content, MCHC, cell density” value (red cell Gardos channel) is listed as “inhibition of the red cell Gardos channel, increased red cell K^+ content, a decreased mean cell hemoglobin concentration (MCHC) and decreased cell density” and the “Gardos channel inhibition and erythrocyte dehydration” value (Gardos channel) is listed as “induces inhibition of the Gardos channel and reduces erythrocyte dehydration”. The “Mitogenic Assay Inhibition” value [2] was 93.0%.
